Experimental data from patent US8901177B2, “Method of treating bladder disorders” (Targacept, Inc., priority 2012, dated 2014).
“Also recorded” adds a separate entry of the source.

Legend:
[1] = molecular target: T1, human α3β4 channels (Homo sapiens, UniProt P30926+P32297); test: Use-dependent inhibition of human α3β4 channels expressed in CHO cells (Dynaflow electrophysiology); assay type: cell-based
T1 construct: host or cells: CHO cells
Method: There was an assumption that the dependence on the number of co-applications would be the most relevant to clinical concentrations, since upon the time of exposure in vivo, the number of open channels could reach substantial numbers; perhaps due to channel spontaneous opening, flickering, and endogenous transmitter release as a result of brain activity. All experiments were performed using a conventional Dynaflow (Cellectricon Inc.) electrophysiological system. Dynaflow settings: To achieve continuous exposure to the drug we used following Dynaflow chip loading. An example of standard chip loading for use-dependent experiments with example for 30 μM ACh and 0.1 μM of TC-05231 (racemic mecamylamine). For the following experiments, ACh always consisted of 30 μM and concentrations of compounds were, 0.03, 0.1, 0.3 and 1.0 (μM). FIG. 13 illustrates the settings.
Applications were performed by positioning the cell in front of channel #1 for 1 second, followed by channel #3, then back to channel #1 by rapidly moving the Dynaflow chip, which consisted of both the laminar flow from the channels and the entire bath solution. The additional channels between control and ACh-containing channel were used: (1) to provide the needed space for an additional washout to avoid contaminating the control channels with the agonist solution; and (2) to allow for the necessary amount of time for the Dynaflow stage to reach its optimum scanning speed.
3.1. Establishment of recording baseline: First, pipette with cells moved to channel #3. Then cells were exposed to ACh by moving cells to channel #1 for 1 second and back to channel #3. This movement of cells was repeated 10 times at 30 second intervals;
3.2. Collection data on use-dependent inhibition: After establishment of stable baseline, cells were moved to channel #6 and exposed to a test compound for 30 sec. Then cells were moved to channel #8 for 1 second and back to channel #6 for 30 seconds (total 10 times with intervals 30 seconds); and 3.3. To test reversibility of block (washout): repeat step 1. Note: with this chip setting, during repeated application of acetylcholine plus test compound, there was no interruption in application of compounds. For all calculations, peak current amplitude was normalized to the peak current amplitude evoked by the 10th application of acetylcholine. Experimental Results

[2] = molecular target: T2, α6-containing nicotinic receptors (Homo sapiens, UniProt Q15825); test: α6-containing nicotinic receptors expressed in oocytes, stimulated with acetylcholine; assay type: cell-based; conditions: acetylcholine alone or with increasing concentrations
T2 construct: expressed in transfected cells; host or cells: oocytes

[3] = tested on: bladder function in anesthetized rats; test: Intravesical model in anesthetized rats (increased bladder contraction frequency), cystometry; assay type: in vivo, rat; conditions: 1 μM and 10 μM intravesical infusion
Method: Female Sprague Dawley rats (200-290 g) from Charles River France, housed in 3-4 rats per cage were anesthetized with urethane (1.2 g/kg) s.c., 3 mL/kg). A polyethylene catheter was implanted into the bladder through the dome. Ureters were tied and cut. Intravesical infusion periods with saline followed by an intravesical infusion period with one of the test compounds, hexamethonium (10 μM) or dexmecamylamine (1 and 10 μM), are depicted in FIG. 7.
The intravesical anesthetized rat model is a model of increased bladder contraction frequency. The model is a “simplified” well established model used to evaluate OAB agents, recognizing that there are decreased inputs from cortical centers. This is the first known experiment using the intravesical anesthetized rat model of increased bladder contraction frequency to test dexmecamylamine for potential efficacy in treating OAB.

[4] = Mouse carcinogenicity studies; assay type: in vivo; conditions: much higher doses and concentrations than in the clinical program
Description: Further, the Summary Basis of Approval for Detrol® indicates similar (lower rates) of bladder dilatation, as is noted in dexmecamylamine's carcinogenicity studies. Urinary retention, and concomitant urinary tract infection, is not anticipated to be a therapy-limiting side effect for relatively low doses and concentrations of dexmecamylamine (FIG. 24).

[5] = Clinical trial for treatment of depression: rates of urinary tract infection and urinary retention; assay type: in vivo, human; conditions: oral tablets 0.1, 0.5, 2 or 4 mg BID
Method: FIG. 24 is a table showing rates of urinary tract infection (UTI) and urinary retention in human patients administered dexmecamylamine in a yet unpublished clinical trial for treatment of depression. Patients received orally administered dexmecamylamine tablets of 0.1 mg, 0.5 mg, 2 mg or 4 mg BID (twice daily). At the end of the trial period, the patients were evaluated and the rates of side effects, including urinary tract infection (UTI) and urinary retention, were recorded.

T1 sequence (P32297 32-505): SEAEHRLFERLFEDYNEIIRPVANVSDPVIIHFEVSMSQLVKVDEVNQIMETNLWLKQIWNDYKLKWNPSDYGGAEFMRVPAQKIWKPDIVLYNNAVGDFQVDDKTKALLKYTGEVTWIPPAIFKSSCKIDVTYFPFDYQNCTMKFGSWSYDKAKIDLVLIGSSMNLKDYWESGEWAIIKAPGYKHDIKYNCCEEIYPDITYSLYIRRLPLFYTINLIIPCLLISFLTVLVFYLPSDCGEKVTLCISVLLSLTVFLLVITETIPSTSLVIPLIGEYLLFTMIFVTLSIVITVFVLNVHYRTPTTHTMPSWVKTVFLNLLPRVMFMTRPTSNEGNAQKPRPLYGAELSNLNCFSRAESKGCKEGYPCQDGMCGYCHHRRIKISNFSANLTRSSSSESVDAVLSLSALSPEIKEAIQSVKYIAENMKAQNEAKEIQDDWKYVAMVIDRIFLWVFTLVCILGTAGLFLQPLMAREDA
T1 sequence (P30926 22-498): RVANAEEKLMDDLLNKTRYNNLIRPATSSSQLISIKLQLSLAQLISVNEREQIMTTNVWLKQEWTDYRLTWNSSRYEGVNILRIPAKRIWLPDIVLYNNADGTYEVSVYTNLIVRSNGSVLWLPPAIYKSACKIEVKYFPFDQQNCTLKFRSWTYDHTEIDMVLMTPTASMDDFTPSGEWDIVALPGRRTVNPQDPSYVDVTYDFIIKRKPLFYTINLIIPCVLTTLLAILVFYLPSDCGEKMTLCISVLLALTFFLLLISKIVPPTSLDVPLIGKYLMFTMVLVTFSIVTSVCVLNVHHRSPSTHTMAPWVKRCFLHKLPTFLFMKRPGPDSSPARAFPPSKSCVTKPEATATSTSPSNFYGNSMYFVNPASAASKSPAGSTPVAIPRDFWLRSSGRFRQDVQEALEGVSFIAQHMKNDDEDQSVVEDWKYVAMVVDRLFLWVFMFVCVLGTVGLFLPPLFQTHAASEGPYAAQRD
T2 sequence (Q15825 26-494): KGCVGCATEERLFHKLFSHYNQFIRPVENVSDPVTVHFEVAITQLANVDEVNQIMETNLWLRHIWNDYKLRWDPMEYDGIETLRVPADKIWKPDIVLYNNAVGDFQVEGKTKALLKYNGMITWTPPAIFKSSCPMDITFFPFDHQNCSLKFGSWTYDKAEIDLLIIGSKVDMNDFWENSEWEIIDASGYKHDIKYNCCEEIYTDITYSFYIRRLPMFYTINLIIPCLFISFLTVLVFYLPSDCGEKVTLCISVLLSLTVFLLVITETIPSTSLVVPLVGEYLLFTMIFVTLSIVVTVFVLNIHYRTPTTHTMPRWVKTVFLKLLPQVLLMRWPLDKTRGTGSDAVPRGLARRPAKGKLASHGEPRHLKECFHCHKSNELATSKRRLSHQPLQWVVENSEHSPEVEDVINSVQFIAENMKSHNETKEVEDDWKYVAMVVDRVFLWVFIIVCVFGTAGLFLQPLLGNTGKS

In the case of `CNC1(C)[C@H]2CCC(C2)C1(C)C` (stereo partly drawn) [TC-5214, (S)—N,2,3,3-tetramethylnorbornan-2-amine], the “peak current normalized to 10th ACh application (positive modulation, FIG. 16)” value ([1]; 30 nM compound + 30 μM ACh, first co-application, control = 100, SEM and n in next columns) is reported as 113.3, the “positive modulation of α3β4 function” value ([1]; 30 nM, t-test p<0.05) is reported as “weak positive modulation” and the “inhibition of human α3β4 receptor (asymptotes to the curve, FIG. 14)” value ([1]; 100 nM compound with acetylcholine) is reported as “minor to no detectable inhibition”. The “Inhibition by (%)” value ([1]; 100 nM compound, after 10 co-applications of 30 uM Ach and compound) was 10% ± 6%, the activity at 0.03 µM ([1]; CHO, 30 nM compound + 30 μM ACh, successive grid rows = co-applications 1 to 10, control = 100, read-out: peak current amplitude normalized to 10th ACh application, use-dependent inhibition box) was 113% and the activity at 0.1 µM ([1]; CHO, 100 nM compound + 30 μM ACh, successive grid rows = co-applications 1 to 10 at 30 s intervals, control = 100, read-out: peak current amplitude normalized to 10th ACh application, use-dependent inhibition box) was 100%. The inhibition at 0.1 µM ([1]; CHO, 100 nM compound, after 10 co-applications of 30 uM Ach and compound, read-out: Inhibition by (%)) was 10.1%, the “recovery (%)” value ([1]; after 100 nM compound, following 10 application of Ach (30 uM) alone) was 96% ± 6% and the “recovery / persistence of inhibition after wash out” value ([1]; after 30 and 100 nM compound, agonist alone) was “full recovery”. The “sensitivity of α6-containing nicotinic receptors” value [2] was “sensitive”, the “bladder capacity (BC)” value [3] was “statistically significant increase” and the “inter-contraction interval (ICI)” value [3] was “statistically significant increase”. The “micturition frequency (MF)” value [3] was “statistically significant decrease”, the “bladder contraction amplitude (AM)” value ([3]; listed as dexmecamylamine) was “no significant decrease; also recorded: no significant change” and the urinary retention [4] was “urinary retention was noted”. The “side effects due to urinary retention” value [5] was “without therapy-limiting side effects due to urinary retention”, the NOEL (30 days oral) was 1 mg/kg/day and the “mortality and histopathologic changes” value (doses up to and including 50 mg/kg/day) was “did not produce any mortalities nor any histopathologic changes”.
